Data reported in patent US20090246292A1, “ANTIMICROBIAL FORMULATIONS COMPRISING A QUINONE AND A COPPER SALT” (priority 2006, published 2009).
Like-named read-outs stand apart in the source and are kept apart here.

Experiments:
[1] = tested on: S. aureus ATCC 29213; assay: Synergy disc diffusion assay (SDDA), also supplemented; details: for SS SDDA with TBHQ / SDDA with TBHQ: copper salt + TBHQ on one disc, 200 μg of each (silicate 62 μg); for SS SDDA with TBHQ / SS SDDA area increase / SS SDDA increase / SS SDDA with CSL / SS SDDA with CSPH: salt and serum supplements; for SDDA with TBHQ / SDDA increase / SDDA area increase: unsupplemented;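 on all read-outs here: disc diffusion on Mueller-Hinton agar at pH 7.2, aerobic incubation at 37 °C lasting 19-20 h, two compounds assessed jointly for combined antimicrobial effect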
[2] = tested on: P. acnes NCTC 737; assay: as above; details: for SL SDDA with TBHQ / SDDA with TBHQ: copper salt + TBHQ on one disc, 200 μg of each (silicate 62 μg); for SDDA with TBHQ / SDDA increase / SDDA area increase: unsupplemented
Experimental: The propionibacteria were cultured and maintained on Wilkins-Chalgren Anaerobe Medium (agar and broth) at pH 6.0; all cultures were incubated anaerobically at 37° C. for 72 hours.
(e) Synergy Disc Diffusion Assay (SDDA)
This is a variation on the DDA method, in which two compounds are tested together for their combined antimicrobial activity.
Two test compounds A and B were placed on a single paper disc and the above described DDA procedure repeated.
(f) Supplemented Disc Diffusion Assays
For assays using Propionibacterium spp. strains the supplements used in the examples below were lipid (either Tween™ 80 or triolein, both at 1% v/v) and sodium chloride (100 mM).

[3] = tested on: S. aureus ATCC 29213; assay: Disc diffusion assay (DDA), also supplemented; details: for DDA + lipid: Tween 80 at 1% v/v; for DDA + salt: sodium chloride (100 mM)
[4] = tested on: P. acnes NCTC 737; assay: Disc diffusion assay (DDA), also supplemented; details: for DDA + lipid: 1% (v/v) Tween 80; for DDA + salt: sodium chloride (100 mM);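 on all read-outs here: paper disc carrying compound placed on inoculated Wilkins-Chalgren Anaerobe agar pH 6.0, with lipid or NaCl supplement where listed, anaerobic 37 °C for 72 h, inhibition zone diameter read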
[5] = tested on: P. acnes NCTC 737; assay: Minimum inhibitory concentration (MIC) assay; type: cell-based, Propionibacterium acnes
Source text: (§1) (a) Minimum Inhibitory Concentration (MIC) Assay
(§2) The culture media were as described above.
(§3) The assays included both negative (culture medium with no micro-organisms) and positive (culture medium plus diluting solvent plus micro-organism) controls.

[6] = tested on: P. acnes NCTC 737; assay: Minimum bactericidal concentration (MBC) assay; type: cell-based, Propionibacterium acnes
Experimental: (§4) (b) Minimum Bactericidal Concentration (MBC) Assay
(§5) Following incubation they were examined visually for bacterial growth.

[7] = tested on: S. aureus ATCC 29213; assay: Minimum bactericidal concentration (MBC) assay; type: cell-based, Staphylococcus aureus
Experimental: as §4, §5

[8] = tested on: S. aureus ATCC 29213; assay: Minimum inhibitory concentration (MIC) assay; type: cell-based, Staphylococcus aureus
Source text: as §1, §2, §3

[9] = copper salt + TBHQ vs larger zone of either compound alone
[10] = salt and lipid (1% (v/v) Tween 80)
[11] = copper salt + TBHQ, salt and lipid (1% (v/v) Tween 80)
[12] = copper salt alone, 200 μg per disc (silicate 62 μg)
[13] = copper salt alone, 200 μg per disc (silicate 62 μg), salt and horse serum (5% v/v)
[14] = copper salt alone, 200 μg per disc (silicate 62 μg), salt and 1% (v/v) Tween 80
[15] = copper salt alone, P. acnes NCTC 737
[16] = copper salt alone, S. aureus ATCC 29213
[17] = quinone + CSL, salt and lipid (1% (v/v) triolein)
[18] = quinone + CSPH, salt and lipid (1% (v/v) triolein)
[19] = Example 9, single compound, salt and serum
[20] = Example 8, single compound, salt and 1% (v/v) triolein

Copper (II)-D-gluconate
SS SDDA with TBHQ [1]: 53.37 mm | SDDA with TBHQ [1]: 68.32 mm | SDDA increase [1, 9]: 27.90 mm | SS SDDA area increase ([1]; copper salt + TBHQ): 49.29% | SS SDDA increase ([1]; copper salt + TBHQ): 9.69 mm | SDDA area increase ([1]; copper salt + TBHQ): 185.69% | SL SDDA with TBHQ [2, 10]: 53.19 mm | SDDA with TBHQ [2]: 53.5 mm | SDDA increase [2, 9]: 8.13 mm | SL SDDA area increase [2, 11]: 27.88% | SL SDDA increase [2, 11]: 6.15 mm | SDDA area increase ([2]; copper salt + TBHQ): 39.05% | DDA [3]: 0 mm | DDA + lipid [3, 12]: 0 mm | DDA + salt & serum [3, 13]: 0 mm | DDA + salt [3, 12]: 0 mm | DDA [4]: 45.37 mm | DDA + lipid [4, 12]: 27.36 mm | DDA + salt & lipid [4, 14]: 47.04 mm | DDA + salt [4, 12]: 37.93 mm | MIC [5, 15]: 62.5 µg/mL | MIC/MBC ratio [5, 15]: 0.5 | MBC [6, 15]: 125 µg/mL | MBC [7, 16]: >250 µg/mL | MIC [8, 16]: >250 µg/mL

Copper (I) oxide
SS SDDA with TBHQ [1]: 45.26 mm | SDDA with TBHQ [1]: 57.05 mm | SDDA increase [1, 9]: 16.63 mm | SS SDDA area increase ([1]; copper salt + TBHQ): 7.37% | SS SDDA increase ([1]; copper salt + TBHQ): 1.58 mm | SDDA area increase ([1]; copper salt + TBHQ): 99.21% | SL SDDA with TBHQ [2, 10]: 51.73 mm | SDDA with TBHQ [2]: 50.06 mm | SDDA increase [2, 9]: 1.25 mm | SL SDDA area increase [2, 11]: 41.48% | SL SDDA increase [2, 11]: 8.24 mm | SDDA area increase ([2]; copper salt + TBHQ): 5.18% | DDA + lipid [3, 12]: 0 mm | DDA + salt & serum [3, 13]: 0 mm | DDA + salt [3, 12]: 0 mm | DDA + lipid [4, 12]: 37.42 mm | DDA + salt & lipid [4, 14]: 43.49 mm | DDA + salt [4, 12]: 44.85 mm | MIC [5, 15]: 1.95 µg/mL | MIC/MBC ratio [5, 15]: 0.06 | MBC [6, 15]: 31.25 µg/mL | MBC [7, 16]: >250 µg/mL | MIC [8, 16]: >250 µg/mL

O=S(=O)([O-])[O-].[Cu+2] [Copper (II) sulphate, copper (II) sulphate]
(S)DDA [3]: 0 mm | SS (S)DDA [3]: 0 mm | activity of copper salt alone (in words) [3]: inactive | (S)DDA [4]: 51.73 (±1.48) mm | SL (S)DDA [4]: 51.10 (±3.17) mm | MIC [5]: 15.6 µg/mL | MIC/MBC ratio [5]: 0.5 | MBC [6]: 31.25 µg/mL | MBC [7]: 1000 µg/mL | MIC [8]: 1000 μml | MIC/MBC ratio [8]: 1

Cc1cc(O)ccc1O [2-methyl-p-hydroquinone]
SS SDDA area increase ([1]; quinone + CSL): 90.18% | SS SDDA increase ([1]; quinone + CSL): 10.20 mm | SS SDDA with CSL ([1]; quinone + CSL): 37.11 (±1.11) mm | SDDA area increase ([1]; quinone + CSL): 112.09% | SDDA increase ([1]; quinone + CSL): 11.76 mm | SS SDDA area increase ([1]; quinone + CSPH): 74.72% | SS SDDA increase ([1]; quinone + CSPH): 8.66 mm | SS SDDA with CSPH ([1]; quinone + CSPH): 35.57 (±0.62) mm | SDDA area increase ([1]; quinone + CSPH): 140.93% | SDDA increase ([1]; quinone + CSPH): 14.23 mm | SL SDDA area increase [2, 17]: 35.49% | SL SDDA increase [2, 17]: 6.98 mm | SL SDDA with CSL [2, 17]: 49.54 (±0.81) mm | SDDA area increase ([2]; quinone + CSL): 24.46% | SDDA increase ([2]; quinone + CSL): 4.72 mm | SL SDDA area increase [2, 18]: 17.67% | SL SDDA increase [2, 18]: 4.20 mm | SL SDDA with CSPH [2, 18]: 53.74 (±1.75) mm | SDDA area increase ([2]; quinone + CSPH): 24.24% | SDDA increase ([2]; quinone + CSPH): 4.82 mm | DDA + salt & serum [3, 19]: 26.91 (±0.00) mm | DDA + salt & lipid [4, 20]: 35.18 (±4.06) mm

CCc1cc(O)ccc1O [2-ethyl-p-hydroquinone]
SS SDDA area increase ([1]; quinone + CSL): 41.05% | SS SDDA increase ([1]; quinone + CSL): 4.74 mm | SS SDDA with CSL ([1]; quinone + CSL): 30.00 (±2.47) mm | SDDA area increase ([1]; quinone + CSL): 151.18% | SDDA increase ([1]; quinone + CSL): 14.23 mm | SS SDDA area increase ([1]; quinone + CSPH): 68.40% | SS SDDA increase ([1]; quinone + CSPH): 7.52 mm | SS SDDA with CSPH ([1]; quinone + CSPH): 32.78 (±0.31) mm | SDDA area increase ([1]; quinone + CSPH): 157.87% | SDDA increase ([1]; quinone + CSPH): 14.74 mm | SL SDDA area increase [2, 17]: 31.58% | SL SDDA increase [2, 17]: 6.26 mm | SL SDDA with CSL [2, 17]: 48.82 (±0.47) mm | SDDA area increase ([2]; quinone + CSL): 33.02% | SDDA increase ([2]; quinone + CSL): 6.26 mm | SL SDDA area increase [2, 18]: 11.07% | SL SDDA increase [2, 18]: 2.67 mm | SL SDDA with CSPH [2, 18]: 52.21 (±0.18) mm | SDDA area increase ([2]; quinone + CSPH): 44.00% | SDDA increase ([2]; quinone + CSPH): 8.41 mm | DDA + salt & serum [3, 19]: 25.26 (±1.29) mm | DDA + salt & lipid [4, 20]: 33.74 (±1.69) mm

CC(C)(C)C1=CC(=O)C=CC1=O
SL SDDA area increase [2, 17]: 56.24% | SL SDDA increase [2, 17]: 11.28 mm | SL SDDA with CSL [2, 17]: 56.41 (±2.58) mm | SDDA area increase ([2]; quinone + CSL): 63.59% | SDDA increase ([2]; quinone + CSL): 11.39 mm | SL SDDA area increase [2, 18]: 10.60% | SL SDDA increase [2, 18]: 2.56 mm | SL SDDA with CSPH [2, 18]: 52.10 (±2.56) mm | SDDA area increase ([2]; quinone + CSPH): 61.51% | SDDA increase ([2]; quinone + CSPH): 11.39 mm | DDA + salt & lipid [4, 20]: 45.13 (±1.45) mm
